Source: article PMC12794084, “Radiosynthesis and Preclinical Evaluation of a Novel ^11C‑Labeled Pyrazolopyrimidine Derivative for Positron Emission Tomography Imaging of Phosphodiesterase 2A” (ACS Medicinal Chemistry Letters, 2025)
Read-outs that look alike come from different tables or passages of the source.

What was measured:
[1] = logD by shake flask method with LC-MS/MS analysis; assay type: physicochemical
[2] = Unbound brain fraction; assay type: in vitro ADME
[3] = target: PDE2A (Homo sapiens, UniProt O00408); conditions: cited from earlier work
Sequence of PDE2A (Homo sapiens, UniProt O00408) (O00408 whole entry): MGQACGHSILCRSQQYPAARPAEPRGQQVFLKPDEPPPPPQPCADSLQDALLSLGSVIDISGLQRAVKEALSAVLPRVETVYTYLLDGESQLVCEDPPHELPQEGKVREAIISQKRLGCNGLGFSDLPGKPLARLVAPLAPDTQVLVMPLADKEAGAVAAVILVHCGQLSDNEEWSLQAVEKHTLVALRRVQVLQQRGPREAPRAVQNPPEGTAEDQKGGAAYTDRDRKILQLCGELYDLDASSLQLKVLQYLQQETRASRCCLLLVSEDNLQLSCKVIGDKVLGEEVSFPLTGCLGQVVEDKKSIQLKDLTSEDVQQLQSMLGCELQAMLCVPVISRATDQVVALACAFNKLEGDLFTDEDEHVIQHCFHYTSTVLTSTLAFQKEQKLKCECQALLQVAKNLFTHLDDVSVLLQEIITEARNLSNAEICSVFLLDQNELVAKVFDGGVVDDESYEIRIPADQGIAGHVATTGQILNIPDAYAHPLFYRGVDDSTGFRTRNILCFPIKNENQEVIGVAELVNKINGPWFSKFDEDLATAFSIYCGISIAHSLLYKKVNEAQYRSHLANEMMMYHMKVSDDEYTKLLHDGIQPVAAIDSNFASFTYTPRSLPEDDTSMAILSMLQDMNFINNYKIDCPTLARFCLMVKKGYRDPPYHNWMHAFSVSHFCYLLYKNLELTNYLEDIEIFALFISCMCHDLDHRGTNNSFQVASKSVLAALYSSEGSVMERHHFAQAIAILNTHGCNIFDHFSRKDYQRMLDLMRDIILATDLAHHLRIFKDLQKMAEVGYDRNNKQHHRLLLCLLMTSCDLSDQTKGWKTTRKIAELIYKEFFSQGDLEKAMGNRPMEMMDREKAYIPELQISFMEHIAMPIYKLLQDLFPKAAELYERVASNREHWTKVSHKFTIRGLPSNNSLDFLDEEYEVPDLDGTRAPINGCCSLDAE

[4] = Ex vivo radiometabolite analysis in SD rats; conditions: SD rat
Excerpt: Brain and plasma samples were rapidly collected and processed following previously reported procedures.

[5] = Ex vivo whole-body biodistribution in ddY mice; parameters: species or system mouse; conditions: 60 min postinjection, i.v.
Method: Decay-corrected radioactivity in each organ was measured using a Wizard automatic gamma counter (PerkinElmer, USA).

[6] = Dynamic PET imaging in SD rats; assay type: in vivo; conditions: SD rat, baseline
Method: Dynamic PET imaging was performed using an Inveon PET scanner (Siemens). […] Images were reconstructed using a Hanning filter with a Nyquist cutoff of 0.5 cycles/pixel, with the following framing: 4 × 1 min, 8 × 2 min, and 8 × 5 min. Data analysis was performed using PMOD version 3.4.

[7] = target: T1, PDE2A (Rattus norvegicus, UniProt Q01062); test: In vitro autoradiography on SD rat brain sections; assay type: binding; conditions: co-incubation with 1 μM blocker
T1 construct: we first conducted in vitro autoradiography studies on SD rat brain sections; from tissue; host or cells: male Sprague-Dawley rat brain sections (20 μm)
T1 sequence (Q01062 1-928): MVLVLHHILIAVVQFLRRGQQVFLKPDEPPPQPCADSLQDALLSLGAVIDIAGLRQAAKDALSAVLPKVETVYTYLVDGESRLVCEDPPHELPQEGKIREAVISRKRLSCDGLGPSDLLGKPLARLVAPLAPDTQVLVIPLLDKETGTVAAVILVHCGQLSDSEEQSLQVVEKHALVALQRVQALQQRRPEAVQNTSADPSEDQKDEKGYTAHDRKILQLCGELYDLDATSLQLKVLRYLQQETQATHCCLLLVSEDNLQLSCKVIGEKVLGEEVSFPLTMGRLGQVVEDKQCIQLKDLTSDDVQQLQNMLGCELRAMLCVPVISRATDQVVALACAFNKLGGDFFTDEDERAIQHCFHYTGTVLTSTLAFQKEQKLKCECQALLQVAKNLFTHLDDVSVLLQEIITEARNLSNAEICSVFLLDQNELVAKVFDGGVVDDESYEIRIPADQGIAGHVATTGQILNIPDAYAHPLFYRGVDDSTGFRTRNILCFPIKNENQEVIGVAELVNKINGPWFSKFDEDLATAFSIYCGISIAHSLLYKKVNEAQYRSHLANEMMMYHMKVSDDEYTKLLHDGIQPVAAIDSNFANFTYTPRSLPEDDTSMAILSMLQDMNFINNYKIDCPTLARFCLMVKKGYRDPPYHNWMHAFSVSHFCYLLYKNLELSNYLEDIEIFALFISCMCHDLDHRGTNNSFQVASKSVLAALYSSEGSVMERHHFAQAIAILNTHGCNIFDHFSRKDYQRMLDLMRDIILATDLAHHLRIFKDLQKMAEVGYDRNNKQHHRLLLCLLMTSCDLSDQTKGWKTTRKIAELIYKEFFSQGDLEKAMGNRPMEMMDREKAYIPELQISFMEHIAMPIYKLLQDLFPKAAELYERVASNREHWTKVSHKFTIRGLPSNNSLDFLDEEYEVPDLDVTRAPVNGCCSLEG
Method: After incubation, sections were washed three times (2 min each) with prechilled buffer and briefly rinsed in cold distilled water (10 s). The slices were then air-dried and placed on imaging screens for 60 min before being scanned using a BAS5000 system (Fujifilm).

Compound: Cc1nc(NC2(c3ccc(C(F)(F)F)cc3)CC2)c2cnn(C)c2n1 [compound 1, 1,6-Dimethyl-N-(1-(4-(trifluoromethyl)-phenyl)-cyclopropyl)-1H-pyrazolo[3,4-d]-pyrimidin-4-amine]
- logD [1]: 3.88
- f u brain [2]: 7.2%

Compound: COc1ccc2nnc3c(C)nc(-c4cc(OCCCC[18F])ccc4F)n3c2n1 [[^18F]TA4]
- IC50 ([3]; triazine scaffold tracers, ref Schröder et al.): 7.3 nM

Compound: Cc1nc(NC2(c3ccc(C(F)(F)F)cc3)CC2)c2cnn([11CH3])c2n1 [[^11C]1]
- % of unchanged form in brain ([4]; 10 min postinjection): 97%
- % of unchanged form in plasma ([4]; 10 min postinjection): 54%
- % of unchanged form in brain ([4]; 30 min postinjection): 86%
- % of unchanged form in plasma ([4]; 30 min postinjection): 34%
- small intestine uptake [5]: 11 ± 1.5 % ID/g
- brain distribution in summed PET images ([6]; 3–20 min): homogeneous distribution
- SUVmax (brain uptake) ([6]; at 2 min postinjection): 1.65
- brain SUV ([6]; by 20 min): below 0.5

Compound: COc1ccc(Cc2nn3c([C@@H](CCCc4ccccc4)[C@@H](C)O)nc(C)c3c(=O)[nH]2)cc1OC [BAY 60-7550]
- blocking effect on [11C]1 signal in autoradiography [7]: significantly reduced the radiotracer signal in PDE2A-rich regions

Compound: Cn1ncc(-c2nn(C)c3ncnc(N4CCC4)c23)c1-c1ccc(C(F)(F)F)cc1 [PF-05085727]
- blocking effect on [11C]1 signal in autoradiography [7]: significantly reduced the radiotracer signal in PDE2A-rich regions

Compound: Cc1nc(-c2cnn(C)c2-c2ccc(C(F)(F)F)cc2)c2c(N3CC([18F])C3)ncnn12 [[^18F]PF-05270430]
- IC50 ([3]; literature PET radioligands): 0.5 nM
